Test results reported in patent US9896445B2, “Heterocyclic inhibitors of ERK1 and ERK2 and their use in the treatment of cancer” (Asana Biosciences, LLC, priority 2015, dated 2018).
pIC50: −log10 of the molar value.

Assays:
[1] = molecular target: T1, ERK1 (Homo sapiens, UniProt P27361); assay: ERK1 HTRF (biochemical) assay
T1 construct: purchased Jubilant Biosys
Experimental: ERK1 and ERK2 HTRF (Biochemical) Assays
These assays employed a homogeneous time resolved fluorescence (HTRF) technique. […] The plate was incubated at room temperature for 60 min with shaking. […] The IC50 values (half maximal inhibitory concentration values) were subsequently determined using a sigmoidal dose-response curve (variable slope) in GraphPad Prism® 5 software.

[2] = molecular target: T2, ERK2 (Homo sapiens, UniProt P28482); assay: ERK2 HTRF (biochemical) assay
T2 construct: purchased Jubilant Biosys
How it was run: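 Readout was time-resolved FRET between europium anti-phospho-MBP and streptavidin-APC after a 60-min room-temperature kinase step. That step used ERK2 (25 nM in enzyme mix), biotinylated MBP peptide (1 uM) and ATP (24 uM) from the substrate mix, in pH 7.5 Tris buffer.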

T1 sequence (P27361 whole entry): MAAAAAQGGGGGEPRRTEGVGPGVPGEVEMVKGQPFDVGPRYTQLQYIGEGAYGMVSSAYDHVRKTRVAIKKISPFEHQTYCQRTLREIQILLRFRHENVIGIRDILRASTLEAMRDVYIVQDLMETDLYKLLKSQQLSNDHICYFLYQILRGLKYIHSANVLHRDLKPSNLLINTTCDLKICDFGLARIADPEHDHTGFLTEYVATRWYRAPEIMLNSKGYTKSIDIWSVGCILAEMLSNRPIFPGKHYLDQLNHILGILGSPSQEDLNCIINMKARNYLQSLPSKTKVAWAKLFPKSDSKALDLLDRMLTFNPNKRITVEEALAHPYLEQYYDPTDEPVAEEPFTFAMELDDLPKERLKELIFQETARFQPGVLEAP
T2 sequence (P28482 whole entry): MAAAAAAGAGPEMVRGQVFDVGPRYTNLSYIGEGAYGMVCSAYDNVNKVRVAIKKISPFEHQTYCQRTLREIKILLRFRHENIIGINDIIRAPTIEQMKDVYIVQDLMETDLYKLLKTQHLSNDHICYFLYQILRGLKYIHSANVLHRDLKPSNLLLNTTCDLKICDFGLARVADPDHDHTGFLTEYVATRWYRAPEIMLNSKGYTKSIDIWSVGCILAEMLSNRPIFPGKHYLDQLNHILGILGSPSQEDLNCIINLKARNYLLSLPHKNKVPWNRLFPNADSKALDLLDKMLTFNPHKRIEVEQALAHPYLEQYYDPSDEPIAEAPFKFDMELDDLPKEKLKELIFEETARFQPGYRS

| SMILES | pIC50 ([1]; HTRF) | pIC50 ([2]; HTRF) | pIC50 ([1]; HTRF biochemical assay) | pIC50 ([2]; HTRF biochemical assay) |
| --- | --- | --- | --- | --- |
| Cc1cnc(Nc2ccc(F)cc2Cl)nc1-n1cnc(C(=O)NC(CN)c2cccc(Cl)c2)c1 (centres unmarked) [Compound 232, N-(2-amino-1-(3-chlorophenyl)ethyl)-1-(2-((2-chloro-4-fluorophenyl)amino)-5-methyl-pyrimidin-4-yl)-1H-imidazole-4-carboxamide] | > 7.30 | ≥ 7.30 | – | – |
| O=C(Nc1cnn(-c2ccnc(N[C@H]3CC[C@H](O)CC3)n2)c1)N[C@H](CO)c1cccc(Cl)c1 [Compound 14, 1-((S)-1-(3-chlorophenyl)-2-hydroxyethyl)-3-(1-(2-((trans-4-hydroxycyclohexyl)amino)pyrimidin-4-yl)-1H-pyrazol-4-yl)urea] | 6.30 to 7.00 | 6.30 to 7.00 | – | – |
| O=C(Nc1cnn(-c2nc(NC3CC3)ncc2F)c1)N[C@H](CO)c1cccc(Cl)c1 [Compound 30, (S)-1-(1-(3-chlorophenyl)-2-hydroxyethyl)-3-(1-(2-(cyclopropyl-amino)-5-fluoro-pyrimidin-4-yl)-1H-pyrazol-4-yl)urea] | > 7.30 | ≥ 7.30 | – | – |
| CC(C)C[C@H](CO)Nc1nccc(-n2cc(NC(=O)N[C@H](CO)c3cccc(Cl)c3)cn2)n1 [Compound 13, 1-((S)-1-(3-chlorophenyl)-2-hydroxyethyl)-3-(1-(2-(((R)-1-hydroxy-4-methylpentan-2-yl)amino)pyrimidin-4-yl)-1H-pyrazol-4-yl)urea] | 6.30 to 7.00 | 6.30 to 7.00 | – | – |
| Cc1cnc(Nc2ccc3c(c2)CC(=O)N3)nc1-n1ccc(C(=O)NC(CO)c2cccc(Cl)c2)c1 (centres unmarked) [Compound 198, N-(1-(3-chloro-phenyl)-2-hydroxy-ethyl)-1-(5-methyl-2-((2-oxoindolin-5-yl)amino)pyrimidin-4-yl)-1H-pyrrole-3-carboxamide] | > 7.30 | ≥ 7.30 | – | – |
| Cc1cnc(Nc2ccc3c(c2)OCO3)nc1-n1cnc(C(=O)N[C@H](CN)c2cccc(Cl)c2)c1 [Example 266, (S)-N-(2-amino-1-(3-chlorophenyl)-ethyl)-1-(2-(benzo[d][1,3]dioxol-5-ylamino)-5-methylpyrimidin-4-yl)-1H-imidazole-4-carboxamide] | > 7.30 | ≥ 7.30 | – | – |
| Cc1cnc(N[C@H]2CCOC2)nc1-n1cnc(C(=O)NCc2ccc(Cl)c(Cl)c2)c1 [Example 314, (S)-N-(3,4-dichlorobenzyl)-1-(5-methyl-2-((tetrahydrofuran-3-yl)amino)pyrimidin-4-yl)-1H-imidazole-4-carboxamide] | – | – | > 7.30 | ≥ 7.30 |
| Cc1cnc(Nc2ccc3c(c2)OCO3)nc1-n1cnc(C(=O)N[C@H](CO)c2cccc(Cl)c2)c1 [Compound 48, (S)-1-(2-(benzo[d][1,3]dioxol-5-ylamino)-5-methylpyrimidin-4-yl)-N-(1-(3-chloro-phenyl)-2-hydroxy-ethyl)-1H-imidazole-4-carboxamide] | > 7.30 | ≥ 7.30 | – | – |
| Cc1cnc(Nc2ccc(F)cc2)nc1-n1cnc(C(=O)NC(CN)c2cccc(Cl)c2)c1 (centres unmarked) [Compound 177, N-(2-amino-1-(3-chlorophenyl)ethyl)-1-(2-((4-fluoro-phenyl)amino)-5-methylpyrimidin-4-yl)-1H-imidazole-4-carboxamide] | > 7.30 | ≥ 7.30 | – | – |
| CC(=O)OCc1c(Cl)cccc1CNC(=O)c1cn(-c2nc(N[C@H]3CCOC3)ncc2C)cn1 [Example 342, (S)-2-chloro-6-((1-(5-methyl-2-((tetrahydrofuran-3-yl)amino)pyrimidin-4-yl)-1H-imidazole-4-carboxamido)-methyl)benzyl acetate] | – | – | > 7.30 | ≥ 7.30 |
| Cc1cnc(Nc2ccccc2)cc1-n1cnc(C(=O)NC(CO)c2ccccc2)c1 (centres unmarked) [Compound 89, N-(2-hydroxy-1-phenylethyl)-1-(5-methyl-2-(phenyl-amino)pyridin-4-yl)-1H-imidazole-4-carboxamide] | 6.30 to 7.00 | ≥ 7.30 | – | – |
| Cc1cnc(NC2CC(F)(F)C2)nc1-n1cnc(C(=O)NC(CN)c2cc(F)cc(Cl)c2)c1 (centres unmarked) [Example 278, N-(2-amino-1-(3-chloro-5-fluoro-phenyl)ethyl)-1-(2-((3,3-difluoro-cyclobutyl)amino)-5-methylpyrimidin-4-yl)-1H-imidazole-4-carboxamide] | > 7.30 | ≥ 7.30 | – | – |
| Cc1cnc(Nc2ccc(F)cc2Cl)nc1-n1ccc(C(=O)N[C@H](CO)c2cccc(Cl)c2)c1 [Compound 29, (S)-1-(2-((2-Chloro-4-fluorophenyl)amino)-5-methylpyrimidin-4-yl)-N-(1-(3-chlorophenyl)-2-hydroxyethyl)-1H-pyrrole-3-carboxamide] | > 7.30 | ≥ 7.30 | – | – |
| Cc1cnc(NC2CCC(F)(F)CC2)nc1-n1cnc(C(=O)N[C@H](CN)c2cccc(Cl)c2)c1 [Example 286, (S)-N-(2-amino-1-(3-chlorophenyl)-ethyl)-1-(2-((4,4-difluorocyclo-hexyl)amino)-5-methylpyrmidin-4-yl)-1H-imidazole-4-carboxamide] | > 7.30 | ≥ 7.30 | – | – |
| O=C(Nc1cnn(-c2ccnc(Nc3ccc4c(c3)OCO4)n2)c1)N[C@H](CO)c1cccc(Cl)c1 [Compound 21, (S)-1-(1-(2-(benzo[d][1,3]dioxol-5-ylamino)-pyrimidin-4-yl)-1H-pyrazol-4-yl)-3-(1-(3-chlorophenyl)-2-hydroxyethyl)urea] | > 7.30 | ≥ 7.30 | – | – |
| Cc1cnc(Nc2ccccc2)cc1-n1cnc(C(=O)NC(CO)c2cccc(Cl)c2)c1 (centres unmarked) [Compound 180, N-(1-(3-chloro-phenyl)-2-hydroxyethyl)-1-(5-methyl-2-(phenyl-amino)pyridin-4-yl)-1H-imidazole-4-carboxamide] | > 7.30 | ≥ 7.30 | – | – |
| COc1cc(F)ccc1Nc1ncc(C)c(-n2ccc(C(=O)NC(CO)c3cccc(Cl)c3)c2)n1 (centres unmarked) [Compound 142, N-(1-(3-chloro-phenyl)-2-hydroxy-ethyl)-1-(2-((4-fluoro-2-methoxy-phenyl)amino)-5-methylpyrimidin-4-yl)-1H-pyrrole-3-carboxamide] | > 7.30 | ≥ 7.30 | – | – |
| Cc1cnc(NC2CCOCC2)nc1-n1cnc(C(=O)N[C@@H](CN)c2cc(F)cc(Cl)c2)c1 [Example 276, (R)-N-(2-amino-1-(3-chloro-5-fluoro-phenyl)ethyl)-1-(5-methyl-2-((tetrahydro-2H-pyran-4-yl)amino)-pyrimidin-4-yl)-1H-imidazole-4-carboxamide] | > 7.30 | ≥ 7.30 | – | – |
| Cc1cnc(Nc2ccc3c(c2)OCO3)nc1-n1ccc(C(=O)N[C@H](CO)c2ccc(F)c(Cl)c2)c1 [Compound 87] | > 7.30 | ≥ 7.30 | – | – |
| Cc1cnc(NC2CCCN(C)C2)nc1-n1ccc(C(=O)NC(CO)c2cccc(Cl)c2)c1 (centres unmarked) [Compound 199, N-(1-(3-chloro-phenyl)-2-hydroxy-ethyl)-1-(5-methyl-2-((1-methyl-piperidin-3-yl)-amino)pyrimidin-4-yl)-1H-pyrrole-3-carboxamide] | > 7.30 | ≥ 7.30 | – | – |
| Cc1cnc(NC2CCOCC2)nc1-n1cnc(C(=O)N[C@H](CN(C)C)c2cccc(Cl)c2)c1 [Example 320, (S)-N-(1-(3-chlorophenyl)-2-(dimethylamino)-ethyl)-1-(5-methyl-2-((tetrahydro-2H-pyran-4-yl)amino)-pyrimidin-4-yl)-1H-imidazole-4-carboxamide] | – | – | > 7.30 | ≥ 7.30 |
| Cc1cnc(NCc2cccnc2)cc1-n1ccc(C(=O)NC(CO)c2ccc(F)c(Cl)c2)c1 (centres unmarked) [Compound 193, N-(1-(3-chloro-4-fluorophenyl)-2-hydroxyethyl)-1-(5-methyl-2-((pyridin-3-ylmethyl)-amino)pyridin-4-yl)-1H-pyrrole-3-carboxamide] | 6.30 to 7.00 | 6.30 to 7.00 | – | – |
| Cc1cnc(N[C@@H]2CCOC2)nc1-n1cnc(C(=O)N[C@H](CO)c2cccc(Cl)c2)c1 [Example 265, N-((S)-1-(3-chlorophenyl)-2-hydroxyethyl)-1-(5-methyl-2-(((R)-tetrahydrofuran-3-yl)amino)pyrimidin-4-yl)-1H-imidazole-4-carboxamide] | > 7.30 | ≥ 7.30 | – | – |
| Cc1cnc(NC2CCOC2)cc1-n1ccc(C(=O)NC(CO)c2cccc(Cl)c2)c1 (centres unmarked) [Compound 165, N-(1-(3-chloro-phenyl)-2-hydroxyethyl)-1-(5-methyl-2-((tetrahydrofuran-3-yl)amino)pyridin-4-yl)-1H-pyrrole-3-carboxamide] | > 7.30 | ≥ 7.30 | – | – |
| Cc1cnc(NC2CCOCC2)nc1-n1cnc(C(=O)N[C@@H](CN)c2cccc(Cl)c2)c1 (single isomer, unassigned) [Compound 225b] | > 7.30 | ≥ 7.30 | – | – |
| COc1cc(Nc2ncc(C)c(-n3ccc(C(=O)NC(CO)c4ccccc4)c3)n2)cc(OC)c1OC (centres unmarked) [Compound 121, N-(2-hydroxy-1-phenylethyl)-1-(5-methyl-2-((3,4,5-trimethoxyphenyl)amino)pyrimidin-4-yl)-1H-pyrrole-3-carboxamide] | > 7.30 | ≥ 7.30 | – | – |
| CC[C@H](CO)Nc1cc(-n2cnc(C(=O)NC(CO)c3cccc(Cl)c3)c2)c(Cl)cn1 (stereo partly drawn) [Compound 168, 1-(5-chloro-2-(((R)-1-hydroxybutan-2-yl)amino)pyridin-4-yl)-N-(1-(3-chlorophenyl)-2-hydroxyethyl)-1H-imidazole-4-carboxamide] | > 7.30 | 7.00 to 7.30 | – | – |
| Cc1cnc(Nc2ccc3c(c2)CCO3)nc1-n1ccc(C(=O)NC(CO)c2cccc(Cl)c2)c1 (centres unmarked) [Compound 137, N-(1-(3-chloro-phenyl)-2-hydroxyethyl)-1-(2-((2,3-dihydro-benzofuran-5-yl)-mino)-5-methyl-pyrimidin-4-yl)-1H-pyrrole-3-carboxamide] | > 7.30 | ≥ 7.30 | – | – |
